{"source": "patent US20040029134A1", "about": "“P53-associated Parkin-like cytoplasmic protein, and related compositions and methods” (priority 2002, published 2004)", "test_system": "Parc-overexpressing (Flag-Parc/U2OS) cells", "test": "Subcellular p53 localization by immunofluorescent staining (anti-p53 1801)", "format": "cell-based, human", "settings": "etoposide 1 μM for 6 hours", "from_the_text": "FIGS. 10A and 10B Parc over-expression abrogates stress-induced nuclear localization of endogenous p53 in U2OS cells. […] The etoposide-treated cells were immunostained with anti-p53 antibody (1801) (visualized by fluorescence) and counterstained with DAPI to visualize the nuclei. (B) Quantification of subcellular p53 localization in parental U2OS and in Parc-overexpressing (Flag-Parc/U2OS) cell lines after the cells were immunostained with the anti-p53 antibody (1801).\nFor the p53 cytoplasmic sequestration assay, cells were transfected with 30 ng/well CMV-p53 and 150 ng/well CMV-Parc. 24 hours post-transfection cells were fixed with 4% paraformaldehyde for 20 min. on ice, rehydrated for 5 min in serum-free DMEM and permeabilized with 0.2% Triton X100 (Fisher) for 10 min on ice. Cells were incubated in 1% bovine serum albumin (BSA) (Sigma)/Phosphate Buffered Salt solution (PBS) (Cellgro) for 30 min. Primary p53-specific monoclonal (for endogenous p53 immunostaining) (DO-1, 1801, Santa Cruz) or polyclonal (for transfected p53 immunostaining) (FL-393, Santa Cruz) antibodies or anti-Flag monoclonal antibody (for transfected Flag-Parc and Flag-Myc immunostaining) (Santa Cruz) were added in 1% BSA/PBS for 45 min at room temperature. […]"}
{"smiles": "COc1cc([C@@H]2c3cc4c(cc3[C@@H](O[C@@H]3O[C@@H]5CO[C@@H](C)O[C@H]5[C@H](O)[C@H]3O)[C@H]3COC(=O)[C@H]23)OCO4)cc(OC)c1O", "note": "[etoposide]", "values": [{"measurement": "cells with nuclear p53 staining", "value": "less than 30%"}]}
